According to ChEMBL document CHEMBL1153693, “Inhibitors of leukotriene B4. Synthesis and sar of new -enaminoester open-chain analogues of zeneca ZD2138” (Bioorg Med Chem Lett, 1996):
Values after ≈ are worked out from the molar mass of the structure shown.

Experiments:
[1] = organism: Homo sapiens; assay: In vitro inhibition of LTB4 production in human blood.; assay type: functional
[2] = tested on: Rattus norvegicus; assay: Compound was evaluated ex vivo for inhibition of LTB4 production in rat air pouch inflammatory exudate at 3 hr after peroral administration.; assay type: functional; settings: po
[3] = Aqueous solubility was determined; assay type: physicochemical

SMILES	IC50 [1] [nM]	solubility [3] [µM]	ED50 [2] [mg/kg]
COC1(c2cc(F)cc(OCc3ccc4c(ccc(=O)n4C)c3)c2)CCOCC1 [ZD-2138]		3.8 (≈ 1.51 µg/mL)	0.3
COC1(C(=N)/C=C(\O)OCc2ccc3c(c2)OCC(=O)N3C)CCOCC1	60	25 (≈ 9.41 µg/mL)	5
COC1(/C=C/COCc2ccc3c(ccc(=O)n3C)c2)CCOCC1	500		> 5
COC1(C(=N)/C=C(\O)OCc2ccc3ccccc3c2)CCOCC1	70	50 (≈ 17.1 µg/mL)	> 5
COC1(/C=C/C(=O)OCc2ccc3c(ccc(=O)n3C)c2)CCOCC1	1700		> 5

Further lines, with some results ahead:

IC50 [1] [nM]	solubility [3] [µM]	SMILES	ED50 [2] [mg/kg]
> 10000		COC1(C(=O)CC(=O)OCc2ccc3c(ccc(=O)n3C)c2)CCOCC1	> 5
2100		COC1(/C(C)=C/C(=O)OCc2ccc3c(ccc(=O)n3C)c2)CCOCC1	> 5
2600		CO/C(=C\C(=O)OCc1ccc2c(ccc(=O)n2C)c1)C1(OC)CCOCC1	> 5
40	150 (≈ 55.9 µg/mL)	COC1(C(=N)/C=C(\O)OCc2ccc3c(ccc(=O)n3C)c2)CCOCC1	3
